Data set [1] deals with ClpC1 NTD protein (M. tuberculosis) (Mycobacterium tuberculosis, UniProt P9WPC9). Briefly: biochemical. It counts as binding.
Data set [2] is classed as in vitro ADME, Rat. A digest of the protocol:
(§1)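 Clearance, expressed as % liver blood flow (%Qh), derived by the well-stirred model from first-order half-lives. Depletion monitored by HPLC-MS/MS in acetonitrile-stopped samples over time; 37 °C, NADPH 1 mM, microsomes 0.5 mg/ml, compound 1 µmol/l, Tris-HCl pH 7.5 with MgCl2.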

Data set [3] is classed as in vitro ADME, Rat. The source holds these as a separate data set.
The nature of data set [4]: Hepatocyte stability, mice. It counts as in vitro ADME. In outline: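 Cryopreserved mouse hepatocytes (about 1 million cells/mL, pH 7.4, 50% species serum) incubated with 1 µM compound, DMSO <0.05%, at 37 °C for up to 6 h, sampled at 6 time points. Parent remaining measured by HPLC-MS/MS; half-life converted via well-stirred liver model to clearance as % Qh.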
The format of data set [5] is in vitro ADME, Mice. In outline: as §1
Data set [6] deals with ClpC1-NTD substrate, M. tuberculosis ClpC1P1P2 (Mycobacterium tuberculosis, UniProt P9WPC9). Briefly: biochemical. Conditions: Mtb. It counts as biochemical.
ClpC1-NTD substrate, M. tuberculosis ClpC1P1P2, sequence (P9WPC5 whole entry): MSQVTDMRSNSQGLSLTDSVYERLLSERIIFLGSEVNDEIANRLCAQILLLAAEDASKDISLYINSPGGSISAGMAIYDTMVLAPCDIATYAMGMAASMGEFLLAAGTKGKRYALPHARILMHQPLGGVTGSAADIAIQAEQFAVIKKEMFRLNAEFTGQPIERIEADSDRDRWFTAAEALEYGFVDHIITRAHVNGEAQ
ClpC1-NTD substrate, M. tuberculosis ClpC1P1P2, sequence (P9WPC9 whole entry): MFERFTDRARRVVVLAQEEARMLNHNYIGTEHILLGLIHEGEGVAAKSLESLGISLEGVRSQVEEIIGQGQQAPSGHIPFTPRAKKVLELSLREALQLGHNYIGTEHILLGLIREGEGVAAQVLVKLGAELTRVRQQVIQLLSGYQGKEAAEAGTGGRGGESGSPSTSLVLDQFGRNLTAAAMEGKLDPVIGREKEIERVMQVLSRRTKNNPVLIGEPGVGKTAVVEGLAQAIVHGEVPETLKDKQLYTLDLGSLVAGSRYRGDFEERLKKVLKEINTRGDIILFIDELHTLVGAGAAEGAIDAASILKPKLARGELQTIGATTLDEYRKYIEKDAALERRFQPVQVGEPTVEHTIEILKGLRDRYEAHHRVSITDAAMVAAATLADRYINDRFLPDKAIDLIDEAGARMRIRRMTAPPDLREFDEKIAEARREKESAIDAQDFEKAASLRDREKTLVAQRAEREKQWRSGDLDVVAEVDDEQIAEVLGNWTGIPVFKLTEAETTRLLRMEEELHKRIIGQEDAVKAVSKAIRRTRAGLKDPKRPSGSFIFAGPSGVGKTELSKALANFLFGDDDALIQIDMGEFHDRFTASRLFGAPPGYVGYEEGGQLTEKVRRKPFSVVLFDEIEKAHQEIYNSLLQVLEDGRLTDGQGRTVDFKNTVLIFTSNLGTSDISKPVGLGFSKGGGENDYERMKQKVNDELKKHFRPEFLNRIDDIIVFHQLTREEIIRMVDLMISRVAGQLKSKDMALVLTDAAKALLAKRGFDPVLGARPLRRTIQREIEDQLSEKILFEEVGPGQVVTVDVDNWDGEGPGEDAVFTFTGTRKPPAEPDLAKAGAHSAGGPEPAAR
ClpC1-NTD substrate, M. tuberculosis ClpC1P1P2, sequence (P9WPC3 whole entry, further chain): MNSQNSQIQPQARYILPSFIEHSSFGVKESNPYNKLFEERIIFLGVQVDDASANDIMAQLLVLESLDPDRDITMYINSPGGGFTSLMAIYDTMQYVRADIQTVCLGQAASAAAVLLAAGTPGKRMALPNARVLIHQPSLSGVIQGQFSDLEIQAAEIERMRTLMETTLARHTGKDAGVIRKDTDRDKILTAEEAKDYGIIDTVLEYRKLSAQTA
The conditions of data set [7]: result in words.
A short description of the next data set: in vitro. Conditions: human. A digest of the protocol: (§2)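 Values are bidirectional Caco-2 apparent permeabilities, P(A−B) and P(B−A), given in 10^-6 cm s-1. The efflux ratio divides P(B−A) by P(A−B), and intrinsic permeability averages the two directions.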
Another data set relates to Caco-2 monolayers. Briefly: in vitro. Conditions: mean value of P(A−B) and P(B−A). A digest of the protocol: as §2
The nature of data set [8]: Microsomal stability, human. It counts as in vitro ADME. In outline:
as §1

In data set [9] the target is His6-tagged ClpC1-NTD substrate, M. smegmatis ClpC1P1P2 (UniProt A0R574+P9WPC9). Briefly: biochemical. Conditions: Msm; Measurement 1-6; read-out: 1-Dmax, single measurements. Format: biochemical.
His6-tagged ClpC1-NTD substrate, M. smegmatis ClpC1P1P2, sequence (P9WPC9 1-156, looked up, natural form): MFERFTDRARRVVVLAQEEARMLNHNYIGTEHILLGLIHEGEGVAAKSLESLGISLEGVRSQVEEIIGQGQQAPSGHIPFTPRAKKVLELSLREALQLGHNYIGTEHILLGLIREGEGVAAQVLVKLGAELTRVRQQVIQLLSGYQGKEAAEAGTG
His6-tagged ClpC1-NTD substrate, M. smegmatis ClpC1P1P2, sequence (A0R574 whole entry): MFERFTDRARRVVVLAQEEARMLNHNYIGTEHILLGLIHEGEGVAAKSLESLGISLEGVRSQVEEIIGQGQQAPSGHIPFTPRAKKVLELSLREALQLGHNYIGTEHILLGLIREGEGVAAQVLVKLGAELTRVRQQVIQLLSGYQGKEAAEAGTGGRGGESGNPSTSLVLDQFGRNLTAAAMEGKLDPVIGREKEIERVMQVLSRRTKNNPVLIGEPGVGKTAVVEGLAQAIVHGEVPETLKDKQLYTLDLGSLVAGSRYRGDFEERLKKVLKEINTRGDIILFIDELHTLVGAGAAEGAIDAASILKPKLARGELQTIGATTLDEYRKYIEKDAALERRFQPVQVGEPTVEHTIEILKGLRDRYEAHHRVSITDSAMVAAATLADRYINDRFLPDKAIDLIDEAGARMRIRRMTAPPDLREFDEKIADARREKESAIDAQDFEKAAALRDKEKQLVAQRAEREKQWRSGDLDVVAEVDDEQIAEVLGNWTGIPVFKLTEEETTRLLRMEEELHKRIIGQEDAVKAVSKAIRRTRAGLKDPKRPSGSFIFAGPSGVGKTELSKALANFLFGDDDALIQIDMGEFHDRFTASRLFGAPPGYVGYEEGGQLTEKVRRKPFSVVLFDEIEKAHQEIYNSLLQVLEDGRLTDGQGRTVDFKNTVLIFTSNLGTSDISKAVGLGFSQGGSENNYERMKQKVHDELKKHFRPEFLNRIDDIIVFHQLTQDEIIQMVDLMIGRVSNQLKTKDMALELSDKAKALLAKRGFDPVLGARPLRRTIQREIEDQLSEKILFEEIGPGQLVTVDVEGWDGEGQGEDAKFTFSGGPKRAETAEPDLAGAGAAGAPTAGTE

Experimental findings from paper PMC10914731, “Homo-BacPROTAC-induced degradation of ClpC1 as a strategy against drug-resistant mycobacteria” (Nature Communications, 2024) are described below.

By Kd is commonly meant a measure of binding affinity in units of concentration. The koff is the rate constant with which the complex falls apart. By Papp A→B is commonly meant the apparent permeability from the apical to the basolateral side of a cell layer. High values mean ready permeation, low ones poor permeation. For orientation: Papp B→A means the apparent permeability from the basolateral to the apical side of a cell layer.

Structures are written as SMILES. Values joined by “and” are separate entries in the source; they are usually repeats but may differ in a detail not shown here. Equal entries are not always repeated. Where two headings read alike, the source gives them in different places. *1 amine or outer side, *2 acyl side, *3 side chain or, on linkers, in order; H or OH if unused. Where a SMILES comes first, the peptide text is derived from it. Bridges are numbered along the chain shown (N, C = ends). Roman numbers before positions name the chains, in order. [ ]: non-standard residue; d: D form. X6 = O=C([C@@H](N[*:1])[C@H](OCC=[*:3])c1ccccc1)[*:2]; NMeLeu(5-OH,4R) = CN[C@@H](C[C@@H](C)CO)C(=O)O; Trp(1-Me) = Cn1cc(C[C@H](N)C(=O)O)c2ccccc21; NMeL = CN[C@@H](CC(C)C)C(=O)O

ClpC1 NTD protein (M. tuberculosis), sequence (P9WPC9 1-156, looked up, natural form): as the sequence (P9WPC9 1-156, looked up, natural form) above

Turning to `CC(C)C[C@H]1C(=O)N[C@@H](C(C)C)C(=O)N[C@@H](Cc2cn(C)c3ccccc23)C(=O)N(C)[C@@H](C[C@@H](C)CO)C(=O)N[C@@H](C)C(=O)N[C@@H]([C@H](OC/C=C/CO[C@H](c2ccccc2)[C@@H]2NC(=O)[C@H](C)NC(=O)[C@H](C[C@@H](C)CO)N(C)C(=O)[C@H](Cc3cn(C)c4ccccc34)NC(=O)[C@H](C(C)C)NC(=O)[C@H](CC(C)C)N(C)C(=O)[C@H](C(C)C)NC2=O)c2ccccc2)C(=O)N[C@@H](C(C)C)C(=O)N1C` [Compound 17] (I: cyclo(A[X6]V[NMeL]V[Trp(1-Me)][NMeLeu(5-OH,4R)]) / II: cyclo(A[X6]V[NMeL]V[Trp(1-Me)][NMeLeu(5-OH,4R)]); staple (E) I:2-II:2), the Kd in data set [1] (SPR (Supplementary Table 1), read-out: KD ClpC1-NTD Mean ± SD) is 23 ± 5 nM; in data set [1] (SPR, single independent measurements, read-out: KD ClpC1-NTD), 26.7 nM and 19 nM. The “koff ClpC1-NTD” value in [1] (SPR, single independent measurements) was found to be 0.004 s⁻¹. In addition, the koff in data set [1] (SPR, single independent measurements, read-out: koff ClpC1-NTD) was 0.005 s⁻¹. Moreover, the “Microsomal Stability Rat QH” value in data set [2] (Rat) is less than 23.100%. Besides, the “Microsomal Stability Rat” value in data set [2] (clearance in microsomes) is reported as less than 23 %Qh. For the same compound, the “Hepatocyte Stability Rat QH” value in data set [3] (Rat) is given as 12.036%. Moreover, in data set [3] (clearance in hepatocytes), the “Hepatocyte Rat” value is listed as 12 %Qh. In addition, the “Hepatocyte Stability Mouse QH” value in [4] (Mouse) is 20.539%. Besides, the “Hepatocyte Mice” value in [4] (clearance in hepatocytes) is reported as 21 %Qh. Further, the “Microsomal Stability Mouse QH” value in data set [5] (Mouse) was less than 24.200%. Moreover, the “Microsomal Stability Mice” value in data set [5] (clearance in microsomes) is listed as less than 24 %Qh. Also, the DC50 in [6] (Measurement 1-4, read-out: DC50, single measurements) was greater than 100000 nM; in data set [6] (mean of the measurements, read-out: DC50, Mean), greater than 100000 nM. For the same compound, the stability upon storage result in data set [7] is reported as “compound decomposition upon storage”. The compound further had an apical-to-basolateral permeability (Papp A→B) in the data set “in vitro” (Caco-2, CACO permeability PEAB, apical to basolateral) of less than 2.5 ×10⁻⁶ cm/s. In addition, in “in vitro” (Caco-2, Caco-2 permeability P (B-A), basolateral to apical), the apparent permeability from basolateral to apical (Papp B→A) is 0.9 ×10⁻⁶ cm/s. Also, the “Caco-2 Int. Perm” value in the data set on Caco-2 monolayers was 1.7 10-6 cm s-1. For the same compound, the “Microsomal Stability Human QH” value in [8] (Human) is recorded as less than 24.400%. The “Microsomal Stability Human” value in data set [8] (clearance in microsomes) is given as less than 24 %Qh. In addition, in data set [9], the 1-Dmax (percent substrate remaining at maximal degradation) stood at 30.2%.
